Source: patent US20150057226A1, “METHOD FOR TREATMENT OF LABOR ARREST” (DILAFOR AB, priority 2012, published 2015)
Positions of bridges follow the written chain, without caps; N, C: chain ends. Non-standard residues stand in square brackets, D forms with d. Residues, ends and D or L forms follow the SMILES beside them. Orn = NCCC[C@H](N)C(=O)O; Mpa = O=C(O)CCS

Tests used:
[1] = tested on: Human uterine smooth muscle cells; assay: Intracellular Ca2+ with Fluo-4, live cell confocal imaging; format: cell-based
Experimental: Human uterine smooth muscle cells were established in a culture. Intracellular Ca^2+ was measured with the calcium indicator dye Fluo-4 and live cell imaging with confocal microscopy was established for the cells.
It was further investigated if the main transport mechanism of inositol-3 phosphate (IP3) stimulated Ca^2+ transport of the endoplasmatic reticulum. To study this pathway, 2-Aminoethoxydiphenyl borate (2-APB) was tested on Ca^2+ after 30 min of incubation with a concentration of 100 μM.
To further characterize the interaction between oxytocin and DF01 the effect of the oxytocin receptor antagonist Atosiban was used and the cells subjected to the DF01 enhanced oxytocin effect on Ca^2+ transport.

[2] = subcutaneous; species not stated; cited from earlier work

Question: With `CCOc1ccc(C[C@H]2NC(=O)CCSSC[C@@H](C(=O)N3CCC[C@H]3C(=O)N[C@@H](CCCN)C(=O)NCC(N)=O)NC(=O)[C@H](CC(N)=O)NC(=O)[C@H]([C@@H](C)O)NC(=O)[C@H]([C@@H](C)CC)NC2=O)cc1` [Atosiban] ([Mpa][dY](Et)ITNCP[Orn]G-NH2; disulfide 1-6) as the molecule, how does the “effect on oxytocin and oxytocin/DF01 effect on Ca2+ transport” value ([1]; 10^−6 M) read?
Answer: clearly inhibited

Question: For `NCCOB(c1ccccc1)c1ccccc1` [2-APB, 2-Aminoethoxydiphenyl borate], which “effect on oxytocin and oxytocin/DF01 stimulated Ca2+-transport” value ([1]; 100 μM, after 30 min of incubation) is on record?
Answer: decreased strongly

Question: Which results are given for `CC[C@H](C)[C@@H]1NC(=O)[C@H](Cc2ccc(O)cc2)NC(=O)[C@@H](N)CSSC[C@@H](C(=O)N2CCC[C@H]2C(=O)N[C@@H](CC(C)C)C(=O)NCC(N)=O)NC(=O)[C@H](CC(N)=O)NC(=O)[C@H](CCC(N)=O)NC1=O` [oxytocin]?
Answer: Ca2+-influx to the cytosol ([1]; cells treated with oxytocin): demonstrated; oxytocin concentration giving maximum effect on Ca2+-influx ([1]; dose-dependent effect): 0.05 IU/ml

Question: With heparin as the molecule, how does the corresponding bioavailability [2] read?
Answer: about 10%
